Structures can show the parent of a compound that is named as a salt.
Molecular target: T1, human C3a receptor (C3aR) (Homo sapiens, UniProt Q16581)
T1 construct: expressed in transfected cells
T1 sequence (Q16581 1-482): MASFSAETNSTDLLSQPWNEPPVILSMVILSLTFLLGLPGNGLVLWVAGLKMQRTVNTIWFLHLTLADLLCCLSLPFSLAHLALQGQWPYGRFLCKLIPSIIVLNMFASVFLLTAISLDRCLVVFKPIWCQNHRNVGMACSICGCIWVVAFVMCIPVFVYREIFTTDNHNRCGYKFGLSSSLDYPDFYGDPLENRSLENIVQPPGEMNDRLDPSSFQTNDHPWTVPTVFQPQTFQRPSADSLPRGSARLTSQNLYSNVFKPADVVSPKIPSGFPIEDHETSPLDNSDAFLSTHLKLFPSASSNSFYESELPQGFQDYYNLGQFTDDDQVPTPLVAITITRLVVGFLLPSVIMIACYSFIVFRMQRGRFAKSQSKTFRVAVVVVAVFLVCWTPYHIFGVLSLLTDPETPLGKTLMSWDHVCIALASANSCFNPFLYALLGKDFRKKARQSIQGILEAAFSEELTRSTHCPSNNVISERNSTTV
Experiment: Inhibition of human [125I]-C3a binding to human C3a receptor (SPA, membranes of HEK293 cells expressing recombinant C3aR)
Details: 0.1 nM [125I]-C3a, 3 hours at room temperature; Table 4
Procedure, shortened: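 HEK293 C3aR membranes were pre-coupled to WGA SPA beads and incubated 3 h at room temperature with 0.1 nM [125I]-C3a in HEPES pH 7.4 buffer containing 0.25% BSA and 0.2% CHAPS, DMSO ≤1%. Nonspecific binding was defined with 1 μM unlabeled C3a. IC50 came from nonlinear least-squares fitting.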

| IC50 [µM] | Structure (SMILES) |
| --- | --- |
| 0.05 to 0.5 | Cc1ccc(S(=O)(=O)NC(=N)NCCC[C@H](NC(=O)c2cccn(C(c3ccccc3)c3ccccc3)c2=O)C(=O)O)cc1 [Compound 77, (2S)-2-({[1-(diphenylmethyl)-2-oxo-1,2-dihydropyridin-3-yl]carbonyl}amino)-5-{[(4-methylphenyl)sulfonyl]carbamimidamido}pentanoic acid] |
| 0.5 to 20 | Cc1c(C)c(S(=O)(=O)NC(=N)Nc2cccc([C@H](NC(=O)c3cccn(Cc4ccccc4)c3=O)C(=O)O)c2)c(C)c2c1OC(C)(C)CC2 [Compound 78, (2S)-{[(1-benzyl-2-oxo-1,2-dihydropyridin-3-yl)carbonyl]amino}(3-{[(2,2,5,7,8-pentamethyl-3,4-dihydro-2H-chromen-6-yl)sulfonyl]carbamimidamido}phenyl)acetic acid] |
| 0.05 to 0.5 | Cc1c(C)c(S(=O)(=O)NC(=N)NCCC[C@H](NC(=O)c2cccn(CC(c3ccccc3)c3ccccc3)c2=O)C(=O)O)c(C)c2c1OC(C)(C)CC2 [Compound 79, (2S)-2-({[1-(2,2-diphenylethyl)-2-oxo-1,2-dihydropyridin-3-yl]carbonyl}amino)-5-{[(2,2,5,7,8-pentamethyl-3,4-dihydro-2H-chromen-6-yl)sulfonyl]carbamimidamido}pentanoic acid•TFA] |
| < 0.05 | COC(=O)[C@H](CCCNC(=N)N)NC(=O)c1cccn(C(c2ccccc2)c2ccccc2)c1=O [Compound 80, methyl (2S)-5-carbamimidamido-2-({[1-(diphenylmethyl)-2-oxo-1,2-dihydropyridin-3-yl]carbonyl}amino)pentanoate] |
| 0.5 to 20 | N=C(N)NCCC[C@H](NC(=O)c1cccn(C(c2ccccc2)c2ccccc2)c1=O)C(N)=O [Compound 81, N-[(1S)-4-carbamimidamido-1-carbamoylbutyl]-1-(diphenylmethyl)-2-oxo-1,2-dihydropyridine-3-carboxamide-TFA] |
| 0.05 to 0.5 | CCOC(=O)N=C(NCCC[C@H](NC(=O)c1cccn(C(c2ccccc2)c2ccccc2)c1=O)C(=O)O)NC(C)C [Compound 82, (2S)-2-({[1-(diphenylmethyl)-2-oxo-1,2-dihydropyridin-3-yl]carbonyl}amino)-5-{[{(ethoxycarbonyl)amino}(isopropylamino)methylene]amino}pentanoic acid] |
| 0.5 to 20 | CCOC(=O)N=C(N)NCCC[C@H](NC(=O)c1cccn(C(c2ccccc2)c2ccccc2)c1=O)C(=O)O [Compound 83, (2S)-2-({[1-(diphenylmethyl)-2-oxo-1,2-dihydropyridin-3-yl]carbonyl}amino)-5-[(ethoxycarbonyl)carbamimidamido]pentanoic acid] |

Same assay, conditions: 0.1 nM [125I]-C3a, 3 hours at room temperature; Table 5

| IC50 [µM] | Structure (SMILES) |
| --- | --- |
| 0.5 to 20 | Cc1cc(Cc2ccccc2)c(=O)n(CC(=O)N[C@@H](CCCNC(=N)N)C(=O)O)c1 [Compound 84, (2S)-2-{[(3-benzyl-5-methyl-2-oxopyridin-1(2H)-yl)acetyl]amino}-5-carbamimidamidopentanoic acid•TFA] |
| 0.05 to 0.5 | O=C(N[C@@H](Cc1c[nH]cn1)C(=O)O)c1cccn(C(c2ccccc2)c2ccccc2)c1=O [Compound 85, (2S)-2-({[1-(diphenylmethyl)-2-oxo-1,2-dihydropyridin-3-yl]carbonyl}amino)-3-(1H-imidazol-4-yl)propanoic acid•TFA] |

Same assay, conditions: 0.1 nM [125I]-C3a, 3 hours at room temperature; Table 6

| IC50 [µM] | Structure (SMILES) |
| --- | --- |
| < 0.05 | CC(=N)NCCC[C@H](NC(=O)c1cccn(C(c2ccccc2)c2ccccc2)c1=O)C(=O)O [Compound 86, (2S)-2-({[1-(diphenylmethyl)-2-oxo-1,2-dihydropyridin-3-yl]carbonyl}amino)-5-(ethanimidoylamino)pentanoic acid•TFA] |
| < 0.05 | N=C(N)NCCCC[C@H](NC(=O)c1cccn(C(c2ccccc2)c2ccccc2)c1=O)C(=O)O [Compound 87, (2S)-6-Carbamimidamido-2-({[1-(diphenylmethyl)-2-oxo-1,2-dihydropyridin-3-yl]carbonyl}amino)hexanoic acid] |
| 0.05 to 0.5 | CC(=N)NCCCC[C@H](NC(=O)c1cccn(C(c2ccccc2)c2ccccc2)c1=O)C(=O)O [Compound 88, (2S)-2-({[1-(diphenylmethyl)-2-oxo-1,2-dihydropyridin-3-yl]carbonyl}amino)-6-(ethanimidoylamino)hexanoic acid•TFA] |
| < 0.05 | N=C(N)NCCC[C@@H](CC(=O)O)NC(=O)c1cccn(C(c2ccccc2)c2ccccc2)c1=O [Compound 89, (3S)-6-Carbamimidamido-3-({[1-(diphenylmethyl)-2-oxo-1,2-dihydropyridin-3-yl]carbonyl}amino)hexanoic acid] |
| < 0.05 | CC(C)(C)Cn1cccc(C(=O)N[C@@H](CCCNC(=N)N)C(=O)O)c1=O [Compound 90, (2S)-5-carbamimidamido-2-({[1-(2,2-dimethylpropyl)-2-oxo-1,2-dihydropyridin-3-yl]carbonyl}amino)pentanoic acid•TFA] |
| 0.05 to 0.5 | CC(=O)NCCC[C@H](NC(=O)c1cccn(C(c2ccccc2)c2ccccc2)c1=O)C(=O)O [Compound 91, (2S)-5-(Acetylamino)-2-({[1-(diphenylmethyl)-2-oxo-1,2-dihydropyridin-3-yl]carbonyl}amino)pentanoic acid] |
| < 0.05 | N/C(=N\O)NCCC[C@H](NC(=O)c1cccn(C(c2ccccc2)c2ccccc2)c1=O)C(=O)O [Compound 92, (2S)-2-({[1-(Diphenylmethyl)-2-oxo-1,2-dihydropyridin-3-yl]carbonyl}amino)-5-(hydroxycarb-amimidamido)pentanoicacid] |
| 0.05 to 0.5 | CC(C)/N=C(\NCCC[C@H](NC(=O)c1cccn(C(c2ccccc2)c2ccccc2)c1=O)C(=O)O)NC(C)C [Compound 93, (2S)-5-({Bis[(1-methylethyl)amino]methylidene}amino)-2-({[1-(diphenylmethyl)-2-oxo-1,2-dihydropyridin-3-yl]carbonyl}amino)pentanoic acid] |
| 0.05 to 0.5 | CC(=N)NCC[C@H](NC(=O)c1cccn(C(c2ccccc2)c2ccccc2)c1=O)C(=O)O [Compound 94, (2S)-2-({[1-(diphenylmethyl)-2-oxo-1,2-dihydropyridin-3-yl]carbonyl}amino)-4-(ethanimidoylamino)butanoic acid•TFA] |
| < 0.05 | CCN(CC)CCC[C@H](NC(=O)c1cccn(C(c2ccccc2)c2ccccc2)c1=O)C(=O)O [Compound 95, (2S)-5-(Diethylamino)-2-({[1-(diphenylmethyl)-2-oxo-1,2-dihydropyridin-3-yl]carbonyl}amino)pentanoic acid] |
| < 0.05 | N=C(CC(=O)O)NCCC[C@H](NC(=O)c1cccn(C(c2ccccc2)c2ccccc2)c1=O)C(=O)O [Compound 96, (2S)-5-[(2-carboxyethanimidoyl)amino]-2-({[1-(diphenylmethyl)-2-oxo-1,2-dihydropyridin-3-yl]carbonyl}amino)pentanoic acid•TFA] |
| < 0.05 | N=C(N)NCCC[C@H](NC(=O)c1ccc(C(c2ccccc2)c2ccccc2)s1)C(=O)O [Compound 97, (2S)-5-Carbamimidamido-2-({[5-(diphenylmethyl)thiophen-2-yl]carbonyl}amino)pentanoic acid] |
| < 0.05 | N=C(N)NCCC[C@H](NC(=O)c1ccc(C(O)(c2ccccc2)c2ccccc2)s1)C(=O)O [Compound 98, (2S)-5-Carbamimidamido-2-[({5-[hydroxy(diphenyl)methyl]thiophen-2-yl}carbonyl)amino]pentanoic acid] |
| < 0.05 | N=C(N)NC(=O)CC[C@H](NC(=O)c1ccc(C(c2ccccc2)c2ccccc2)s1)C(=O)O [Compound 99, (2S)-5-Carbamimidamido-2-({[5-(diphenylmethyl)thiophen-2-yl]carbonyl}amino)-5-oxopentanoicacid] |
| 0.5 to 20 | CC(=N)NCCC[C@H](NC(=O)c1cccn(Cc2ccccc2)c1=O)C(=O)O [Compound 100, (2S)-2-{[(1-benzyl-2-oxo-1,2-dihydropyridin-3-yl)carbonyl]amino}-5-(ethanimidoylamino)pentanoic acid•TFA] |
| 0.05 to 0.5 | CC(=N)NCCC[C@H](NC(=O)c1cccn(Cc2cccc(Cl)c2)c1=O)C(=O)O [Compound 101, (2S)-2-({[1-(3-chlorobenzyl)-2-oxo-1,2-dihydropyridin-3-yl]carbonyl}amino)-5-(ethanimidoylamino)pentanoic acid•TFA] |
| 0.05 to 0.5 | CC(=N)NCCC[C@H](NC(=O)c1ccc(C(c2ccccc2)c2ccccc2)o1)C(=O)O [Compound 102, (2S)-2-({[5-(Diphenylmethyl)furan-2-yl]carbonyl}amino)-5-(ethanimidoylamino)pentanoic acid] |
| 0.05 to 0.5 | CC(=N)NCCC[C@H](NC(=O)c1ccc(C(c2ccccc2)c2ccccc2)s1)C(=O)O [Compound 103, (2S)-2-({[5-(diphenylmethyl)thiophen-2-yl]carbonyl}amino)-5-(ethanimidoylamino)pentanoic acid•TFA] |
| 0.5 to 20 | CC(=N)NCCC[C@H](NC(=O)c1cccn(Cc2ccccc2Cl)c1=O)C(=O)O [Compound 104, (2S)-2-({[1-(2-chlorobenzyl)-2-oxo-1,2-dihydropyridin-3-yl]carbonyl}amino)-5-(ethanimidoylamino)pentanoic acid•TFA] |
